# How the values were obtained:
# [1] = Leaching characteristics from feed pellets under water; assay type: physicochemical; settings: for dissolved out of feed pellets under water: 20.0 g pellets in 200 g water, 20° C.; for leaching compared with DL-methionine, MHA and calcium-MHA: compound feed pellets under water, identical conditions
# Description: The feed matrix used was a methionine-deficient feed mixture of conventional ingredients such as, for example, soybean meal, soybean oil, cornstarch, wheat meal, fish meal, cellulose, crystalline essential amino acids and minerals and vitamins as premixes. This mixture was then supplemented batchwise in 20 kg batches in each case with the methionine derivatives stated in table 5, with a 0.25% supplementation rate (based on sulfur equivalents), and was homogenized and then pelleted with steam treatment. As comparison with methionylmethionine (I), a pelleting experiment was carried out in each case with DL-methionine, MHA (methionine hydroxy analog) and calcium MHA. In addition, a control experiment was carried out by pelleting without addition of a methionine derivative (see table 5). The leaching characteristics of the diastereomers of methionylmethionine (I) from the feed pellets was then investigated under water. In this case, the dissolving out of methionylmethionine under water as a function of time, temperature, water composition (salt or fresh water) was determined. […] All the Erlenmeyer flask was subsequently agitated continuously with a laboratory shaker at a constant temperature of 20° C. Then, at defined time intervals, a sample of water was removed in each case and the content of the individual pairs of methionylmethionine diastereomers in the water was determined by HPLC (see table 7). For comparison, in each case the feed pellets supplemented with DL-methionine, MHA or calcium MHA were investigated under the same conditions and thus their leaching characteristics under water determined under the respective conditions (see FIG. 5 and table 7).
# [2] = Stability during pelleting and steam treatment of the feed mixture; assay type: physicochemical; settings: mixtures with natural protein and carbohydrate sources
# Description: The feed matrix used was a methionine-deficient feed mixture of conventional ingredients such as, for example, soybean meal, soybean oil, cornstarch, wheat meal, fish meal, cellulose, crystalline essential amino acids and minerals and vitamins as premixes. This mixture was then supplemented batchwise in 20 kg batches in each case with the methionine derivatives stated in table 5, with a 0.25% supplementation rate (based on sulfur equivalents), and was homogenized and then pelleted with steam treatment. As comparison with methionylmethionine (I), a pelleting experiment was carried out in each case with DL-methionine, MHA (methionine hydroxy analog) and calcium MHA. In addition, a control experiment was carried out by pelleting without addition of a methionine derivative (see table 5). In this case, the amino acid determination was based on EU method 98/64/EC. After extraction of the free amino acids and methionylmethionine (I), these were subsequently determined with the aid of an amino acid analyzer by post-column derivatization with ninhydrin (see table 6).
# Litopenaeus vannamei = settings: feeding experiments; cited from earlier work
# [3] = test system: enzyme cocktail of digestive and liver enzymes from carp
# Description: The method for isolating the digestive enzymes was based on that of EID and MATTY (Aquaculture 1989, 79, 111-119). […] To isolate liver enzymes, the livers were isolated, homogenized and treated in analogy to the processing of the intestinal enzymes in example 22. The procedure for enzyme isolation from the pancreas was also analogous thereto.
# D-Methionine was taken up in buffer solution, and the enzyme solution was added. A blank without enzyme solution was made up in each case as comparison and for estimating the purely chemical transformation rate. After 24 hours, a sample was taken and the composition was detected and quantified with the aid of calibrated HPLC.
# chickens = settings: cited from earlier work
biotransformation of D-methionine to L-methionine [3],Molecule,dissolved out of feed pellets under water ([1]; Time 0) [%],dissolved out of feed pellets under water ([1]; Time 5) [%],dissolved out of feed pellets under water ([1]; Time 10) [%],dissolved out of feed pellets under water ([1]; Time 15) [%],dissolved out of feed pellets under water ([1]; Time 30) [%],dissolved out of feed pellets under water ([1]; Time 60) [%],dissolved out of feed pellets under water ([1]; Time 120) [%],dissolved out of feed pellets under water ([1]; Time 210) [%],"leaching compared with DL-methionine, MHA and calcium-MHA [1]","stability during pelleting, extrusion and steam treatment [2]","stability during pelleting, extrusion and steam treatment ([2]; listed as DL-methionyl-DL-methionine (I))","stability during pelleting, extrusion and steam treatment ([2]; listed as methionylmethionine (I))",activity as feed additive compared with L-methionine (Litopenaeus vannamei),maximum dissolved out of the feed pellets ([1]; after a residence time of 200 min) [%],biological value (chickens)
,"CSCCC(N)C(=O)NC(CCSC)C(=O)O (mixture of isomers) [LL/DD/LD/DL-I, DL-methionyl-DL-methionine]",1.5,2.0,3.2,3.6,5.4,9.5,12.3,17.0,distinctly less leaching,stable,absolutely stable,remained stable,,,
,"CSCCC(O)C(=O)O (racemic) [MHA, rac-2-hydroxy-4-(methylthio)butanoic acid, reference compound]",6.0,12.8,20.8,28.8,50.5,75.4,94.1,99.9,,,,,,,
,"CSCCC(N)C(=O)O (racemic) [Methionine, DL-methionine]",4.0,12.0,16.0,24.0,39.9,59.9,79.8,87.8,,,,,same activity as L-methionine,,
may be transformed into L-methionine,CSCC[C@@H](N)C(=O)O [D-methionine],,,,,,,,,,,,,,,
,"CSCCC(N)C(=O)NC(CCSC)C(=O)O (stereo not drawn) [DL/LD-I, DL/LD-methionylmethionine]",0.6,0.7,0.9,0.6,0.6,1.7,1.7,3.8,distinctly less leaching,,,,,≤ 5,
,"CSCCC(N)C(=O)NC(CCSC)C(=O)O (stereo not shown) [LL/DD-I, DD/LL-methionylmethionine]",2.7,3.7,6.5,7.7,12.1,20.6,27.4,35.9,distinctly less leaching,,,,,,
,"CSCCC(O)C(=O)[O-].CSCCC(O)C(=O)[O-].[Ca+2] (stereo not shown) [MHA-Ca, reference compound]",8.6,16.5,28.2,39.4,61.7,82.4,94.1,97.0,,,,,,,
,poly-L-methionine,,,,,,,,,,,,,,,lack of biological value

# From patent US9095161B2, “Preparation and use of methionylmethionine as feed additive for fish and crustaceans” (EVONIK DEGUSSA GmbH, priority 2008, dated 2015)
